In brackets after ≈: the same amount, converted by molar mass. Several values for one entry are separate records, joined by “and”; a condition that tells them apart may be missing. Equal values may be shown once.
Tests used:
C. tropicalis = experiment: MIC testing (CLSI M27-A3); format: cell-based
Penicillium strains [1] = experiment: MFC determination; format: cell-based, Penicillium spp.
C. parapsilosis = experiment: MIC testing (CLSI M27-A3); format: cell-based; design: MIC: unit not given beside the values
C. albicans SC5314 [2] = experiment: In vitro activity (MFC) against the infecting strain, Example 18; format: cell-based, Candida albicans; conditions: Candida albicans, read-out: MFC
A. fumigatus AF91 = experiment: In vitro activity (MFC) against the infecting strain, Example 17; format: cell-based, Aspergillus fumigatus; conditions: Aspergillus fumigatus, read-out: MFC
Description: Minimum Fungicidal Concentration: MFC determinations were performed according to the modifications previously described by Canton et al., Diagn. Microbiol. Infect. Dis., 45:203-206, 2003, and Ghannoum and Isham, Infectious Diseases in Clinical Practice, 15(4):250-253, 2007.
Specifically, the total contents of each clear well from the MIC assay were subcultured onto potato dextrose agar. To avoid antifungal carryover, the aliquots were allowed to soak into the agar and then were streaked for isolation once dry, thus removing the cells from the drug source. Fungicidal activity is defined as ≥99.9% reduction in the number of colony forming units (CFU)/ml from the starting inoculum count, while fungistatic activity is defined as <99.9% reduction. […] MIC and MFC values are considered to be equivalent if they are within 2 dilutions.

C. glabrata strains [3] = experiment: MFC determination; format: cell-based; design: MFC: unit not given beside the values
Cr. neoformans strains [4] = experiment: MFC determination; format: cell-based, Cryptococcus neoformans; conditions: Cr. neoformans
[5] = system: all Aspergillus strains tested; experiment: MIC testing (CLSI M38-A2), summary; format: cell-based; conditions: caspofungin read as MEC
Candida albicans SC5314 = experiment: Disseminated candidiasis in immunocompromised murine model (BALB/c mice): tissue fungal burden; format: in vivo; conditions: Experiment I; 4 mg/kg i.v. twice a day, 7 days
Penicillium strains [6] = experiment: MIC testing (CLSI M38-A2); format: cell-based, Penicillium spp.; conditions: Penicillium
[7] = system: individual Aspergillus spp. (Table 14, species not named); experiment: MIC testing (CLSI M38-A2), Table 14; format: cell-based; conditions: Aspergillus sp. of Table 14, caspofungin read as MEC
[8] = system: all Aspergillus strains tested; experiment: MFC determination, summary; format: cell-based
Fusarium strains [9] = experiment: MFC determination, Table 17; format: cell-based, Fusarium spp.; conditions: Fusarium strains (Table 17)
[10] = system: Fusarium strains (Table 18); experiment: MFC determination, Table 18; format: cell-based, Fusarium spp.
Cr. neoformans strains [11] = experiment: MIC testing (CLSI M27-A3, YNB, 72 h); format: cell-based, Cryptococcus neoformans
[12] = system: Aspergillus fumigatus AF91; experiment: Disseminated Aspergillosis in immunocompromised murine model (CD-1 mice): tissue fungal burden; conditions: Experiment I; 7.5 mg/kg i.v., 7 days
Fusarium strains [13] = experiment: MIC testing (CLSI M38-A2), Table 17; format: cell-based, Fusarium spp.; conditions: Fusarium strains (Table 17)
[14] = system: individual Aspergillus spp. (Table 14, species not named); experiment: MFC determination, Table 14; format: cell-based; conditions: Aspergillus sp. of Table 14
Candida albicans = experiment: MIC testing (CLSI M27-A3); format: cell-based; design: MIC: unit not given beside the values
C. albicans SC5314 [15] = experiment: In vitro activity (MIC) against the infecting strain, Example 18; format: cell-based, Candida albicans; conditions: Candida albicans, read-out: MIC
C. glabrata strains [16] = experiment: MIC testing (CLSI M27-A3); format: cell-based; design: MIC: unit not given beside the values
all Candida strains = experiment: MFC determination, summary; format: cell-based
[17] = system: individual Aspergillus spp. (Table 15, species not named); experiment: MFC determination, Table 15; format: cell-based; conditions: Aspergillus sp. of Table 15
[18] = system: individual Aspergillus spp. (Table 12, species not named); experiment: MIC testing (CLSI M38-A2), Table 12; format: cell-based; conditions: Aspergillus sp. of Table 12, caspofungin read as MEC
C. krusei strains = experiment: MFC determination; format: cell-based; conditions: C. krusei

C[C@@H](c1ncncc1F)[C@](O)(Cn1cncn1)c1ccc(F)cc1F [Voriconazole, voriconazole]
MIC Range (C. tropicalis; C. tropicalis strains, in µg/mL): <0.06-1
MIC50 (C. tropicalis; C. tropicalis, inhibits 50% of strains): 0.06 µg/mL (≈ 0.172 µM)
MIC90 (C. tropicalis; C. tropicalis, inhibits 90% of strains): 0.06 µg/mL (≈ 0.172 µM)
MFC50 (Penicillium strains [1]; kills 50% of strains): > 32 µg/mL
MFC90 (Penicillium strains [1]; kills 90% of strains): > 32 µg/mL
MIC50 (C. parapsilosis; C. parapsilosis, inhibits 50% of strains): < 0.06 µg/mL
MIC90 (C. parapsilosis; C. parapsilosis, inhibits 90% of strains): 0.06 µg/mL (≈ 0.172 µM)
MIC (C. parapsilosis; individual C. parapsilosis strain with elevated MICs to non-polyene comparators (Table 22), listed as Vor): 0.06 (2×) and >32
MFC (C. albicans SC5314 [2]): > 32 µg/mL
MFC (A. fumigatus AF91): > 8 µg/mL
MFC Range (C. glabrata strains [3]; C. glabrata strains, in µg/mL): >32
MFC50 (C. glabrata strains [3]; C. glabrata, kills 50% of strains): > 32 µg/mL
MFC90 (C. glabrata strains [3]; C. glabrata, kills 90% of strains): > 32 µg/mL
MFC (C. glabrata strains [3]; individual C. glabrata strain with elevated MICs to non-polyene comparators (Table 22), in µg/mL): >32
MFC50 (Cr. neoformans strains [4]; kills 50% of strains): > 0.5 µg/mL
MFC90 (Cr. neoformans strains [4]; kills 90% of strains): > 0.5 µg/mL
MIC Range ([5]; in µg/mL): 0.06-8
MIC50 ([5]; inhibits 50% of strains): 0.5 µg/mL (≈ 1.43 µM)
MIC90 ([5]; inhibits 90% of strains): 2 µg/mL (≈ 5.73 µM)
Brain tissue fungal burden, Mean log CFUs ± the standard deviation (Candida albicans SC5314): 3.42 ± 2.30 log CFUs
Kidney tissue fungal burden, Mean log CFUs ± the standard deviation (Candida albicans SC5314): 3.45 ± 1.15 log CFUs
MIC50 (Penicillium strains [6]; inhibits 50% of strains): 4 µg/mL (≈ 11.5 µM)
MIC90 (Penicillium strains [6]; inhibits 90% of strains): > 32 µg/mL
MIC Range ([7]; in µg/mL): 0.06-8
MIC50 ([7]; inhibits 50% of strains): 1 µg/mL (≈ 2.86 µM)
MIC90 ([7]; inhibits 90% of strains): 4 µg/mL (≈ 11.5 µM)
MFC50 ([8]; kills 50% of strains): > 8 µg/mL
MFC90 ([8]; kills 90% of strains): > 8 µg/mL
MFC50 (Fusarium strains [9]; kills 50% of strains): 32 µg/mL (≈ 91.6 µM)
MFC90 (Fusarium strains [9]; kills 90% of strains): > 32 µg/mL
MFC50 ([10]; kills 50% of strains): > 16 µg/mL
MFC90 ([10]; kills 90% of strains): > 16 µg/mL
MIC Range (Cr. neoformans strains [11]; Cr. neoformans strains, 72 h, in µg/mL): <0.06-0.25
MIC50 (Cr. neoformans strains [11]; Cr. neoformans, inhibits 50% of strains): < 0.06 µg/mL
MIC90 (Cr. neoformans strains [11]; Cr. neoformans, inhibits 90% of strains): 0.125 µg/mL (≈ 0.358 µM)
Kidney tissue fungal burden, Mean log CFUs ± the standard deviation [12]: 3.19 ± 0.59 log CFUs
Lung tissue fungal burden, Mean log CFUs ± the standard deviation [12]: 3.38 ± 0.45 log CFUs
MIC50 (Fusarium strains [13]; inhibits 50% of strains): 16 µg/mL (≈ 45.8 µM)
MIC90 (Fusarium strains [13]; inhibits 90% of strains): > 32 µg/mL
MFC50 ([14]; kills 50% of strains): > 8 µg/mL
MFC90 ([14]; kills 90% of strains): > 8 µg/mL
MIC Range (Candida albicans; Fluconazole-susceptible C. albicans n = 13, in µg/mL): <0.06-0.06
MIC50 (Candida albicans; Fluconazole-susceptible C. albicans n = 13, inhibits 50% of strains): 0.6 µg/mL (≈ 1.72 µM)
MIC90 (Candida albicans; Fluconazole-susceptible C. albicans n = 13, inhibits 90% of strains): 0.06 µg/mL (≈ 0.172 µM)
MIC (Candida albicans; individual C. albicans strain with elevated MICs to non-polyene comparators (Table 22), listed as Vor, in µg/mL): >0.06 and 0.5 and 32
MIC (C. albicans SC5314 [15]): 0.008 µg/mL (≈ 0.0229 µM)
MIC50 (C. glabrata strains [16]; C. glabrata, inhibits 50% of strains): 0.25 µg/mL (≈ 0.716 µM)
MIC90 (C. glabrata strains [16]; C. glabrata, inhibits 90% of strains): 4 µg/mL (≈ 11.5 µM)
MIC (C. glabrata strains [16]; individual C. glabrata strain with elevated MICs to non-polyene comparators (Table 22), listed as Vor): 1 (3×) and >32 and 0.25 and 2
MFC50 (all Candida strains; kills 50% of strains): > 32 µg/mL
MFC90 (all Candida strains; kills 90% of strains): > 32 µg/mL
MFC50 ([17]; kills 50% of strains): > 4 µg/mL
MFC90 ([17]; kills 90% of strains): > 4 µg/mL
MIC Range ([18]; in µg/mL): 0.25-4
MIC50 ([18]; inhibits 50% of strains): 1 µg/mL (≈ 2.86 µM)
MIC90 ([18]; inhibits 90% of strains): 2 µg/mL (≈ 5.73 µM)
MFC50 (C. krusei strains; kills 50% of strains): > 8 µg/mL
MFC90 (C. krusei strains; kills 90% of strains): > 8 µg/mL
